From paper PMC9866940 (Viruses, 2022)
Counter-ions that a name gives are not always drawn. Like-named read-outs stand apart in the source and are kept apart here.

How the values were obtained:
JUNV MG = assay: microbe, parasite or virus in culture; assay type: cell-based, Junin virus (JUNV)
LCMV (rLCMV.Arm) = assay: microbe, parasite or virus in culture; assay type: cell-based, lymphocytic choriomeningitis virus (LCMV)
LCMV MG = assay type: cell-based, lymphocytic choriomeningitis virus (LCMV); conditions: 5 µM
A549 cells [1] = test system: A549 cells
LASV MG = assay: microbe, parasite or virus in culture; assay type: cell-based, Lassa virus (LASV); conditions: for inhibition at 5 µM: Huh-7, read-out: inhibition of LASV MG activity (rescreening); for inhibition of LASV MG activity (rescreening): 5 µM
JUNV (Candid #1 strain) = assay: microbe, parasite or virus in culture; assay type: cell-based, Junin virus (JUNV)
A549 cells [2] = test system: A549 cells; remark: listed apart in the source
in vitro [3] = conditions: human
in vitro [4] = conditions: human; remark: listed apart in the source
Huh-7 cells = conditions: 5 µM
in vitro [5] = conditions: human; remark: listed apart in the source
in vitro [6] = conditions: human; remark: listed apart in the source
[7] = Mammarenavirus juninense, Huh-7
[8] = Mammarenavirus choriomeningitidis, A549, 24 h
[9] = Mammarenavirus lassaense, Huh-7
[10] = Mammarenavirus juninense, A549, 48 h

SMILES | IC50 (JUNV MG; read-out: IC50) [nM] | IC50 (LCMV (rLCMV.Arm); read-out: IC50) [nM] | CC50 (A549 cells [1]) [nM] | IC50 (LASV MG; read-out: IC50) [nM] | IC50 (JUNV (Candid #1 strain); read-out: IC50) [nM] | CC50 (A549 cells [2]) [nM] | IC50 (JUNV MG; [7]) [nM] | IC50 (LCMV (rLCMV.Arm); [8]) [nM] | IC50 (LASV MG; [9]) [nM] | IC50 (JUNV (Candid #1 strain); [10]) [nM] | CC50 (in vitro [3]) [nM] | further results
Cc1c2ccncc2c(C)c2c1[nH]c1ccccc12.Cl [ellipticine hydrochloride] | 760 | 1500 | 32500 | 760 | 1730 | ≥ 20000 | – | – | – | – | – | inhibition of LCMV MG activity (LCMV MG): 95%
CC(=O)[C@]1(O)Cc2c(O)c3c(c(O)c2[C@@H](O[C@H]2C[C@H](N)[C@H](O)[C@H](C)O2)C1)C(=O)c1ccccc1C3=O [idarubicin hydrochloride] | – | – | – | – | – | – | 120 | 590 | 60 | 2560 | 790 | –
CCN(CC)CCCC(C)Nc1c2ccc(Cl)cc2nc2ccc(OC)cc12 (stereo not shown) [quinacrine dihydrochloride] | – | – | – | – | – | – | 1510 | – | 1670 | 7330 | – | viability at 5 µM (in vitro [4]): > 70%; inhibition at 5 µM (LASV MG; Mammarenavirus lassaense): ≥ 90%
CN(C)CCN1C(=O)c2cccc3cc(N)cc(c23)C1=O [amonafide] | – | – | – | – | – | – | 2900 | 10000 | 2890 | 5750 | ≥ 40000 | –
COc1c(C)c2c(c(O)c1C/C=C(\C)CCC(=O)O)C(=O)OC2 [MPA, mycophenolic acid] | – | – | – | – | – | – | 420 | – | 370 | 970 | – | –
NCCNc1ccc(NCCN)c2c1C(=O)c1ccncc1C2=O.O=C(O)/C=C\C(=O)O.O=C(O)/C=C\C(=O)O [pixantrone maleate] | 1810 | 4750 | 30300 | 1010 | 3660 | ≥ 40000 | – | – | – | – | – | cell viability (rescreening) (Huh-7 cells): > 70%; inhibition of LASV MG activity (rescreening) (LASV MG): at least 90%
CCN(CC)CCCC(C)Nc1c2ccc(Cl)cc2nc2ccc(OC)cc12 (stereo not shown) [QDD, quinacrine dihydrochloride dihydrate] | – | – | – | – | – | – | – | – | – | – | – | cell viability (rescreening) (Huh-7 cells; human): > 70%; IC50 (JUNV MG): 1460 nM; CC50 (A549 cells [1]; human): 28000 nM; IC50 (LASV MG): 1280 nM; inhibition of LASV MG activity (rescreening) (LASV MG): at least 90%; IC50 (JUNV (Candid #1 strain)): 4660 nM
CN[C@H]1CN(c2ccc3c(=O)c(C(=O)O)cn(-c4nccs4)c3n2)C[C@@H]1OC [voreloxin (SNS 595) hydrochloride] | 1150 | 8500 | 13300 | 1820 | 5230 | ≥ 40000 | – | – | – | – | – | –
NC(=O)c1ncn([C@@H]2O[C@H](CO)[C@@H](O)[C@H]2O)n1 [ribavirin, Ribavirin] | – | – | – | – | – | – | 38200 | 20200 | 15400 | 45400 | ≥ 100000 | CC50 (in vitro [4]; CC50): ≥ 200000 nM; CC50 (in vitro [5]): ≥ 200000 nM; CC50 (in vitro [6]): ≥ 200000 nM
Nc1ccc2cc3ccc(N)cc3nc2c1 [proflavine] | – | – | – | – | – | – | 1360 | – | 1040 | 2450 | – | viability at 5 µM (in vitro [4]): > 70%; inhibition at 5 µM (LASV MG; Mammarenavirus lassaense): ≥ 90%
